Measured values taken from US8969395B2, “Triterpenoid derivatives useful as antiproliferative agents” (Universidade de Coimbra, priority 2009, dated 2015).

How the values were obtained:
[1] = tested on: HepG2 (human hepatocellular carcinoma); experiment: Cytotoxic activity, MTT assay, HepG2; format: cell-based; settings: 72 h, mean ±SD
In short: (§1)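 HepG2, HeLa and Chang liver cells (8×10^3, 1×10^3, 5×10^3 cells/well) pre-grown 24 h, treated 72 h in triplicate (DMSO <0.1%), MTT 0.5 mg/ml 1 h, read 550 nm. Jurkat (5.5×10^3 cells/well) treated 72 h, XTT 4 h, read 450 nm. IC50 as mean±SD of at least three experiments.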

Jurkat cells [2] = experiment: Cell cycle analysis by flow cytometry (FACS, PI), Jurkat; format: cell-based, human; settings: compound at its IC50, 72 h
Experimental: (§2) The effects on the cell cycle of some of these compounds were assessed through flow cytometry by using a fluorescence-activated cell sorter (FACS) (Table 5 below). For this assay 2.3×10^5 HepG2 cells/well, 2.9×10^4 HeLa cells/well, 1.6×10^5 Jurkat cells/well and 1.4×10^5 Chang liver cells/well were plated in 6 well plates with 2 ml of medium. The number of cells was determined by the relationship number of cells/area wells, considering the number of cells that were cultured in 96-well plates. […] Chang liver cells were incubated with compounds 20, […] at concentrations corresponding to the IC80 determined for HepG2 at 72 h. Following 72 h. of incubation, cells were harvested by mild trypsinization, collected by centrifugation and stained in ice-cold Tris-buffered saline (TBS), containing 1 mg/ml PI, 10 mg/ml RNAse free of DNAase and 0.1% Igepal CA-630 for 1 h at 4° C. FACS analysis was carried out at 488 nm in an Epics XL flow cytometer (Coulter Corporation, Hialeah, Fla.). Data from 8×10^3 cells were collected and analyzed using Multicycle program (Phoenix Flow Systems, San Diego, Calif.). All experiments were performed three times with three replicates per experiment. […] To explore the selectivity of the effect on tumor cells, we also tested compounds 20, 44 and 46 in a non-malignant cell line. Chang liver cells were treated with the compounds at the IC80 values determined for HepG2 after 72 h of incubation and no effect was observed, indicating a selective effect of these agents (Table 5 below).

Jurkat (human leukemia) = experiment: Cytotoxic activity, XTT assay, Jurkat; format: cell-based; settings: 72 h, mean ±SD
In short: as §1

HepG2 cells = experiment: Cell cycle analysis by flow cytometry (FACS, PI), HepG2; format: cell-based, human; settings: for Phase of cell cycle (% of cells) G0/G1 / Phase of cell cycle (% of cells) G2/M / Phase of cell cycle (% of cells) S: HepG2, compound at its IC50, 72 h; for decrease in the percentage of cells in the G0/G1 phase / increase in the population in S phase: HepG2, with respect to untreated cells, at IC50, 72 h
Experimental: as §2

[3] = tested on: HeLa (human cervical adenocarcinoma); experiment: Cytotoxic activity, MTT assay, HeLa; format: cell-based; settings: 72 h, mean ±SD
Jurkat cells [4] = experiment: Apoptosis, Annexin V-FITC/PI FACS, Jurkat; format: cell-based, human; settings: at IC50, 72 h, FIG. 8
Experimental: (§3) Assessment of apoptosis was performed 72 h after treatment with derivatives at their IC50. Briefly, the same number of HepG2, HeLa, Jurkat and Chang liver cells as in the cell cycle assay were treated with compounds 20, 44, 46 and betulinic acid 2, as described above. Cells were collected washed once in ice-sold binding buffer (10 mM HEPES/NaOH, pH 7.4, 140 mM NaCl, 2.5 mM CaCl2) and ressuspended in the same buffer (95 μl) at a maximum, of 8×10^5 cells/ml. Annexin V-FITC conjugate (1 μg/ml) was added and incubated for 30 min at room temperature in darkness. Just before FACS analysis, cells were stained with 20 μl of […]. Approximately 1×10^4 cells were analysed for each histogram and experiments were performed three times with triplicates per experiment. FACS analysis using Annexin V-FITC staining and PI accumulation was used to differentiate early apoptotic cells (Annexin V^+ and PI^−) from necrotic or late apoptotic cells (Annexin V^+ and PI^+). […] In comparison with untreated controls, compound 44 treatment of HepG2 cells generated apoptosis in 53% of cells (42% of early apoptosis and 11% of late apoptosis), compound 46 generated apoptosis in 38% of cells (28% of early apoptosis plus 10% late apoptosis) and compound 20 induced apoptosis in 29% of cells (22% of early apoptosis plus 7% late apoptosis) (FIG. 8).

HeLa cells = experiment: Apoptosis, Annexin V-FITC/PI FACS, HeLa; format: cell-based, human; settings: at IC50, 72 h, FIG. 8
Experimental: as §3

C=C(C)[C@@H]1CC[C@]2(CO)CC[C@]3(C)[C@H](CC[C@@H]4[C@@]5(C)CC[C@H](OC(=O)n6ccnc6)C(C)(C)[C@@H]5CC[C@]43C)[C@@H]12 [Compound 20, 28-hydroxy-lup-20(29)-en-3β-yl-1H-imidazole-1-carboxylate]
IC50 [1]: 2 ± 0.4 µM | Phase of cell cycle (% of cells) G0/G1 (Jurkat cells [2]): 48.6 ± 4.4 % of cells | Phase of cell cycle (% of cells) G2/M (Jurkat cells [2]): 15.8 ± 2.1 % of cells | Phase of cell cycle (% of cells) S (Jurkat cells [2]): 35.6 ± 3.1 % of cells | IC50 (Jurkat (human leukemia)): 11.1 ± 1.3 µM | Phase of cell cycle (% of cells) G0/G1 (HepG2 cells): 49.4 ± 1.2 % of cells | Phase of cell cycle (% of cells) G2/M (HepG2 cells): 14.5 ± 0.8 % of cells | Phase of cell cycle (% of cells) S (HepG2 cells): 36.1 ± 0.8 % of cells | decrease in the percentage of cells in the G0/G1 phase (HepG2 cells): 12% | increase in the population in S phase (HepG2 cells): 17% | IC50 [3]: 3 ± 0.2 µM | effectiveness at inducing apoptosis (Jurkat cells [4]): extremely effective | effectiveness at inducing apoptosis (HeLa cells): extremely effective

C=C(C)[C@@H]1CC[C@]2(C(=O)n3ccnc3)CC[C@]3(C)[C@H](CC[C@@H]4[C@@]5(C)CCC(=O)C(C)(C)[C@@H]5CC[C@]43C)[C@@H]12 [Compound 44, 28-(1H-imidazol-1-yl)-lup-20(29)-en-3,28-dione]
IC50 [1]: 0.8 ± 0.05 µM | Phase of cell cycle (% of cells) G0/G1 (Jurkat cells [2]): 52.7 ± 0.5 % of cells | Phase of cell cycle (% of cells) G2/M (Jurkat cells [2]): 20.8 ± 1.1 % of cells | Phase of cell cycle (% of cells) S (Jurkat cells [2]): 26.6 ± 0.9 % of cells | IC50 (Jurkat (human leukemia)): 1.4 ± 0.2 µM | Phase of cell cycle (% of cells) G0/G1 (HepG2 cells): 45.6 ± 2.1 % of cells | Phase of cell cycle (% of cells) G2/M (HepG2 cells): 14.9 ± 1.4 % of cells | Phase of cell cycle (% of cells) S (HepG2 cells): 39.6 ± 3.6 % of cells | decrease in the percentage of cells in the G0/G1 phase (HepG2 cells): 16% | increase in the population in S phase (HepG2 cells): 20% | IC50 [3]: 2 ± 0.3 µM | effectiveness at inducing apoptosis (Jurkat cells [4]): most effective | effectiveness at inducing apoptosis (HeLa cells): most effective

C=C(C)[C@@H]1CC[C@]2(C(=O)n3ccnc3)CC[C@]3(C)[C@H](CC[C@@H]4[C@@]5(C)C=CC(=O)C(C)(C)[C@@H]5CC[C@]43C)[C@@H]12 [Compound 46, 28-(1H-imidazol-1-yl)-lup-1,20 (29)-dien-3,28-dione]
IC50 [1]: 1.7 ± 0.2 µM | Phase of cell cycle (% of cells) G0/G1 (Jurkat cells [2]): 49.6 ± 2.6 % of cells | Phase of cell cycle (% of cells) G2/M (Jurkat cells [2]): 20.7 ± 2.4 % of cells | Phase of cell cycle (% of cells) S (Jurkat cells [2]): 29.8 ± 0.8 % of cells | IC50 (Jurkat (human leukemia)): 2.3 ± 0.3 µM | Phase of cell cycle (% of cells) G0/G1 (HepG2 cells): 54.7 ± 1.5 % of cells | Phase of cell cycle (% of cells) G2/M (HepG2 cells): 14.3 ± 1.0 % of cells | Phase of cell cycle (% of cells) S (HepG2 cells): 30.7 ± 0.6 % of cells | decrease in the percentage of cells in the G0/G1 phase (HepG2 cells): 7% | increase in the population in S phase (HepG2 cells): 12% | IC50 [3]: 3 ± 0.2 µM | effectiveness at inducing apoptosis (Jurkat cells [4]): extremely effective | effectiveness at inducing apoptosis (HeLa cells): extremely effective
